Like-named read-outs stand apart in the source and are kept apart here.
Experiments:
[1] = tested on: MDA-MB-231; experiment: Cell proliferation assay (WST-1), calcium channel antagonists; type: cell-based, human; settings: 0, 1, 5, and 10 μM for 72 hrs
Procedure: (§1) Cell Proliferation Assay In Vitro. Mesenchymal-like, TNBC cell lines, MDA-MB-231 and SUM159, were grown in DMEM supplemented with 10% fetal bovine serum and 1% antibiotic-antimycotic. Stock solutions of various calcium-channel antagonists (amlodipine, nicardipine, nifedipine, felodipine, isradipine, diltiazem, verapamil, lacidipine, nisoldipine, nitrendipine, nivaldipine, azelnidipine, barnidipine, benidipine, efonidipine, lercanidipine, pranidipine, and manidipine) were prepared in DMSO. Effects on cell proliferation were assayed with the WST-1 method. Briefly, 1,000 (SUM159) and 2,000 (MDA-MB-231) cells/well were plated in a 96-well plate and treated with different concentrations (0, 1, 5, and 10 μM) of calcium channel antagonists for 72 hrs. Proliferation rate was determined by adding premixed WST-1 reagent. After incubation at 37° C. for three hrs, absorbance was read at 450 nm (reference wavelength 690 nm). Results were normalized against vehicle (100%). The antagonists were considered active when proliferation was decreased in ≥30%.

[2] = tested on: SUM159; experiment: as above; type: cell-based, human; settings: 0, 1, 5, and 10 μM for 72 hrs
Procedure: as §1

[3] = tested on: advanced melanoma; settings: 2 mg/kg, 173 patients; cited from earlier work
[4] = tested on: ipilimumab-refractory metastatic melanoma; settings: cited from earlier work
[5] = tested on: metastatic PD-L1-positive NSCLC; settings: cited from earlier work
[6] = tested on: advanced, PD-L1-positive TNBC; settings: cited from earlier work
[7] = tested on: recurrent or metastatic head and neck squamous cell carcinoma; settings: cited from earlier work
[8] = tested on: unresectable stage III or IV advanced melanoma; settings: cited from earlier work
[9] = tested on: MDA-MB-231 xenografts; experiment: MDA-MB-231 xenografts treated with L-NMMA, docetaxel, combination; type: in vivo, mice
Procedure: (§2) Animal Studies. Female SCID Beige mice (4-5 weeks old) (Harlan Laboratories, Houston, Tex., USA) were housed under standard laboratory conditions (22° C.; 12 hrs/12 hrs light/dark cycle and free access to food and water). Either MDA-MB-231 or SUM159 cells (3×10^6) were injected in the right mammary fat pad. Once the tumors reached 150-200 mm^3, the mice were randomized into different groups as follows (n=10/group): 1) Vehicle (saline, i.p.), 2) L-NMMA (either 80 mg/kg or 200 mg/kg, i.p., daily), 3) Docetaxel (20 mg/kg), 4) Combo (L-NMMA and docetaxel).
(§3) Self-renewal and tumor-initiating capacity was determined by MSFE and limiting-dilution assays, respectively, in single cells isolated from tumor tissue. Briefly, breast tumor tissue was minced, digested in DMEM:F12 medium with 100 U/mL of collagenase type 3 (Worthington, Lakewood, N.J., USA) and 0.8 U/mL of dispase (Gibco, Carlsbad, Calif., USA) at 37° C. for 45 min. MSFE was assayed in isolated single cells as stated above. The limiting dilution assay (LDA) was performed injecting either […] isolated cells from tumor tissue in the mammary fat pad of SCID Beige mice (n=12/group). Flow cytometric analysis of CD44^+/CD24^−/low cell population was assayed using published methods.
The role of L-NMMA was then investigated, either alone or in combination with docetaxel in a different TNBC mouse model. Docetaxel (20 mg/kg at days 0 and 21) and 200 mg/kg L-NMMA (daily) were given to MDA-MB-231 xenograft-bearing mice for 31 days.

[10] = tested on: SUM159 xenografts; experiment: SUM159 xenografts treated with L-NMMA, docetaxel, combination; type: in vivo, mice
Procedure: as §2, §3
To answer this question, daily injections of 80 mg/kg L-NMMA were first given to SUM159 xenograft-bearing mice alone or in combination with docetaxel (20 mg/kg). […] The inventor next analyzed the impact on CSC self-renewal by the MSFE assay.

[11] = tested on: MCF10A; experiment: Western blot of PERK/eIF2α/ATF4/ATF3 axis with recombinant TGFβ1; type: cell-based; settings: 10 ng/mL for 24 hrs
From the text: FIG. 3A, FIG. 3B, FIG. 3C, FIG. 3D, FIG. 3E, FIG. 3F, FIG. 3G, FIG. 311, FIG. 3I, and FIG. 3J show iNOS knockdown impairs tumorigenicity and EMT by a dual impact on HIF1α and endoplasmic reticulum (ER) stress/TGFβ/AFT4/ATF3 crosstalk. Proliferation (FIG. 3A), migration (FIG. 3B), and self-renewal capacity (primary and secondary mammospheres) (FIG. 3C) in MDA-MB-231 cells transfected with two different NOS2-directed shRNAs (shRNA1, shRNA2) compared with empty vector (shRNA-EV). […] Selective iNOS inhibition reduced hypoxia (HIF1α), ER stress markers (IRE1α, ATF4) (FIG. 3F), phospho-Smad2/3, Smad2/3 and mature TGFβ protein levels in MDA-MB-231 and SUM159 cells (FIG. 3G). FIG. 3H: Recombinant TGFβ1 (10 ng/mL for 24 hrs) activates the PERK/eIF2α/ATF4/ATF3 axis in MCF10A. […] FIG. 3J: Selective iNOS inhibition is postulated to impair EMT and tumor cell migration by an impact on HIF1α, ER stress (IRE1α/XBP1) and the crosstalk between ATF4, ATF3 and TGFβ. Results were normalized to empty vector. Data are presented as mean±SEM. ****p<0.0001, ***p<0.001, **p<0.01. One-way ANOVA and Bonferroni's post-hoc test;
Western Blot. Cells were cultured at a density of 2.5×10^5 cells/well in 6-well plates with or without iNOS inhibitors for 96 hrs. Cells were resuspended in 1× lysis buffer (Cell Signaling Technology, Inc.) and 1× protease/phosphatase inhibitor cocktail (Thermo Scientific). […]

## CCOC(=O)C1=C(C)NC(C)=C(C(=O)OCC)C1c1ccccc1/C=C/C(=O)OC(C)(C)C [lacidipine]
[1]
  proliferation: dose-dependent decrease in proliferation
[2]
  proliferation: dose-dependent decrease in proliferation

## pembrolizumab: humanized monoclonal antibody of the IgG4/κ isotype blocking the interaction between PD-1 and its ligands
[3]
  overall response rate: 24%
[4]; 2 mg/kg Q3W
  6-month PFS rate: 34%
[4]; 2 mg/kg, 178 patients
  Grade 3-4 treatment-related fatigue, patients: 1%
[4]; 2 mg/kg
  Grade 3-4 generalized edema and myalgia (each), patients: 1%
  Grade 3-4 treatment-related adverse events, patients: 11%
[4]; 10 mg/kg Q3W
  6-month PFS rate: 38%
[4]; 10 mg/kg, 179 patients
  Grade 3-4 treatment-related fatigue, patients: < 1%
[4]; 10 mg/kg
  Grade 3-4 hypopituitarism, colitis, diarrhea, decreased appetite, hyponatremia, and pneumonitis (each), patients: 1%
  Grade 3-4 treatment-related adverse events, patients: 14%
[5]; 11 patients
  patients having a DoR of ≥6 months: 44%
[5]; 21 of 25
  responses ongoing at the time of the analysis, patients: 85%
[5]; 61 patients with PD-L1 strongly positive tumors, all partial responses
  objective response rate (ORR): 41%
[6]; 10 mg/kg Q2W, 27 evaluable patients
  overall response rate: 18.5%
[6]; 10 mg/kg Q2W
  PR, patients: 14.8%
  complete response (CR), patients: 3.7%
  progressive disease (PD), patients: 48.1%
[6]; five patients
  Grade ≥3 AEs, patients: 15.6%
[6]; in vivo
  median DoR: not yet reached
[6]; range: 7.3-32.4 weeks
  median time to response: 17.9 weeks
[7]; 10 mg/kg Q2W or 200 mg Q3W, n=174
  ORR: 16%
[7]; 23 of 28
  responding patients with responses of 6 months or longer: 82%
[7]; in vivo
  SAEs, patients: 45%
  dyspnea, patients: 20%
  fatigue, patients: 46%
[8]; pembrolizumab 10 mg/kg Q2W
  estimated 6-month PFS rate: 47.3%
[8]; pembrolizumab 10 mg/kg Q3W
  estimated 6-month PFS rate: 46.4%
[8]; pembrolizumab Q2W
  estimated 12-month survival rate: 74.1%
  rate of Grade 3-5 treatment-related AEs: 13.3%
  response rate: 33.7%
[8]; pembrolizumab Q3W
  estimated 12-month survival rate: 68.4%
  rate of Grade 3-5 treatment-related AEs: 10.1%
  response rate: 32.9%

## ipilimumab: comparator in the KEYNOTE-006 melanoma study
[8]; ipilimumab 3 mg/kg Q3W, four cycles
  estimated 6-month PFS rate: 26.5%
[8]; ipilimumab 3 mg/kg Q3W
  estimated 12-month survival rate: 58.2%
  rate of Grade 3-5 treatment-related AEs: 19.9%
  response rate: 11.9%

## CC1=C(C(=O)OC(C)C)C(c2cccc([N+](=O)[O-])c2)C(C(=O)OC2CN(C(c3ccccc3)c3ccccc3)C2)=C(N)N1 (centres unmarked) [azelnidipine]
[1]
  proliferation: dose-dependent decrease in proliferation
[2]
  proliferation: dose-dependent decrease in proliferation

## COC(=O)C1=C(C#N)NC(C)=C(C(=O)OC(C)C)C1c1cccc([N+](=O)[O-])c1 (centres unmarked) [nivaldipine]
[1]
  proliferation: dose-dependent decrease in proliferation
[2]
  proliferation: dose-dependent decrease in proliferation

## CC(=O)O[C@@]12CO[C@@H]1C[C@H](O)[C@@]1(C)C(=O)[C@H](O)C3=C(C)[C@@H](OC(=O)[C@H](O)[C@@H](NC(=O)OC(C)(C)C)c4ccccc4)C[C@@](O)([C@@H](OC(=O)c4ccccc4)[C@H]21)C3(C)C [docetaxel]
[9]; 5 weeks with 5×10^4 cells, vehicle 12/12
  limiting dilution assay, tumors: 8/12
[9]; after six weeks, vehicle 6/12
  limiting dilution assay, tumors: 8/12
[9]; relative to the combination group
  apoptosis levels (cleaved caspase-3): higher apoptosis levels
[10]; 7 weeks with 5×10^4 cells, vehicle 12/12
  limiting dilution assay, tumors: 12/12
[10]; mouse, in vivo
  CD44+/CD24−/low population (flow cytometry): slight increase
  primary and secondary MSFE of single tumor cells isolated from tumor tissue: dramatic increase
[10]; week nine with 2×10^4 cells, vehicle 7/12
  limiting dilution assay, tumors: 3/12

## recombinant TGFβ1: recombinant human TGF-β1 (CHO cell derived)
[11]
  PERK/eIF2α/ATF4/ATF3 axis: induced the PERK/eIF2α/ATF4/ATF3 axis

Source: patent US11357850B2, “Methods for treating breast cancer using INOS-inhibitory compositions” (The Methodist Hospital, priority 2014, dated 2022)
